We go through five compounds from patent publication US20250221963A1 (GH RESEARCH IRELAND LIMITED, priority 2022, published 2025).

The structures appear in SMILES notation. A value given as a limit tells only on which side of the number the result lay.

Data set [1] deals with human hepatocytes. As to the kind of experiment: In vitro metabolism identification study in human hepatocytes. The following applies: for Relative Proportion of compounds identified: 5-MeO-DMT free base incubated up to 120 minutes at 10 μM; for Presence in subsequent assays: metabolites of 5-MeO-DMT. Here is the method:
For incubations with cryopreserved hepatocytes, the 2 mM stock solution was diluted with Leibovitz L-15 medium to a concentration of 20 μM or 2 μM. An aliquot (250 μL) of the 20 μM and 2 μM test substance formulations was added to each hepatocyte incubation sample (250 μL), as appropriate, so that the final test substance concentration in the incubations was 10 μM or 1 μM, respectively, and incubations contained less than 1% (v/v) solvent.
Incubations were performed at ca. 37° C. in a shaking water bath (total incubation volume 0.5 mL). For 1 μM, incubations were terminated after 0, 5, 10, 20, 30, 60 and 120 minutes, by the addition of ice-cold acetonitrile (0.5 mL).
The samples were vortex mixed and centrifuged at ca 13,000 rpm for 10 minutes at room temperature. Following centrifugation, the protein-free supernatants were removed for analysis.
Blank control incubations were carried out with Leibovitz L-15 medium in place of the test substance. No cells control samples were performed with Leibovitz L-15 medium in place of hepatocytes. Aliquots of the blank control samples were taken at 120 minutes, while no cells control samples were taken at 0, 30 and 120 for 1 μM incubations and at 0 and 120 minutes for 10 μM incubations.
All 1 μM incubations were performed in duplicate, while all 10 μM incubations were performed in singlet. All samples were stored at −80° C. (nominal) prior to analysis.
Prior to sample analysis a 100 μL aliquot of each sample was evaporated to near dryness under a steady stream of nitrogen at room temperature, and subsequently reconstituted in 50 μL of mobile phase A (0.1% formic acid in water). Each sample (0, 30 and 120-minute, 10 μM) was analysed using accurate mass LC-MS to determine relative levels of parent compound at each time-point, and determine the profile of metabolites formed. Appropriate blank and control samples were also analysed. The 10 and 60-minute, 10 μM incubation samples were not analysed and were stored at −80° C. (nominal).
Data were interrogated for the presence of metabolites by comparison of retention times with the test substance reference standard and based on the accurate masses of potential metabolites using screening software (UNIFI version 1.9.4), and user defined search parameters. To confirm a suspected metabolite, the measured accurate mass of the peak detected in the sample used for structural elucidation had to be within 5 ppm of the theoretical mass in order to confirm the molecular formula.

Data set [2] has as its system human hepatocytes. As to the kind of experiment: Metabolic stability in Hμrel co-culture assay with human hepatocytes. To be noted: for Disappearance with stromal cell controls: stromal cells.
Another data set relates to human plasma protein. As to the kind of experiment: Plasma binding of 5-MIAA. The format is in vitro ADME. Here is the method:
Binding to human plasma protein was determined. Reported are the unbound fraction (fu) for three replicates as well as the mean unbound fraction, the standard deviation and the mean % recovery (Table 8).

Data set [3] is described as follows: Pharmacokinetics of 5-MeO-DMT and bufotenine after inhalation. Format: in vivo, human. Here is the method: Blood samples were obtained at 1; 2; 4; 7; 10; 15; 20; 30; 45 min and 1; 1.5; 2; 3; 4 hours after administration.
PK parameters were generated by algebraic analysis of the concentration versus time plots for each individual. The analysis was carried out using the software Phoenix WinNonlin 6.3.

As to `COc1ccc2[nH]cc(CC[N+](C)(C)[O-])c2c1` [5-MeO-DMT-N-oxide], in the data set with human hepatocytes [1], the “Relative Proportion of compounds identified” value (from here on “Relative Proportion”) stood at 1%.

Take `COc1ccc2[nH]cc(CC(=O)O)c2c1` [5-MIAA, 5-methoxyindole-3-acetic acid]: in the data set on human hepatocytes [2] (human hepatocytes, 1 μM), the Half-life is on record as 15 400 min and the “In vitro intrinsic clearance” value is on record as 0.15 μl/min/million cells. For the same compound, in the data set with human hepatocytes [2], the “Disappearance with stromal cell controls” value was “no disappearance”. In the data set on human hepatocytes [1], the “Relative Proportion” value is on record as 61% and the “Presence in subsequent assays” value is listed as “predominant metabolite”. For the same compound, the “Plasma binding (mean fraction unbound)” value in the data set on human plasma protein is on record as around 50%. Moreover, the “Unbound fraction (fu)” value with human plasma protein (Replicate 1) came out at 0.499. Besides, in the data set on human plasma protein (Replicate 2), the “Unbound fraction (fu)” value is on record as 0.462. Also, the “Unbound fraction (fu)” value in the data set with human plasma protein (Replicate 3) is given as 0.544. The “Time until all traces are removed from circulation for urinary excretion” value with human plasma protein (assuming glomerular filtration rate of 90-120 ml/min) is 1 to 2 h. This compound also had a Mean fu with human plasma protein (three replicates) of 0.502.

In the case of `CN(C)CCc1c[nH]c2ccc(O)cc12` [bufotenine], in data set [3] (after administration of 5-MeO-DMT), the “Detection in human serum” value is “barely detected”. The Bufotenine blood concentration in data set [3] (from 15 min onwards after 5-MeO-DMT, LLOQ) was below 25 pg/mL. The “Relative Proportion” value in the data set on human hepatocytes [1] was found to be 5%.

Turning to `CC(=O)CC(c1ccccc1)c1c(O)c2ccccc2oc1=O` (stereo not shown) [Warfarin, reference compound], the results for the “Unbound fraction (fu)” value in the data set on human plasma protein (Replicate 1), in the data set on human plasma protein (Replicate 2) and in the data set on human plasma protein (Replicate 3) were 0.0418, 0.0356 and 0.0358, respectively.

Turning to `COc1ccc2[nH]cc(CCO)c2c1` [5-methoxytryptophol, 5-Methoxyindole-3-ethanol], the “Time to complete disappearance” value in the data set with human hepatocytes [2] (in the presence of hepatocytes) is 24 h. In the data set on human hepatocytes [2], the “Disappearance with stromal cell controls” value is given as “no disappearance”. In the data set on human hepatocytes [1], the “Relative Proportion” value is on record as 25% and the “Presence in subsequent assays” value is reported as “repeatedly failed to detect the presence”.
